System: interaction of CUG repeat RNA with recombinant MBNL1 protein (MBNL1-PL)
Assay: Beta-galactosidase enzymatic complementation assay
Assay type: binding, human
Details: (CUG)109 tethered to streptavidin plate
Protocol: FIGS. 33A and 33B. […] (CUG)109 transcripts are tethered to the surface of a streptavidin-coated microtiter plate using a capture oligonucleotide that is biotinylated. The capture oligo anneals to complementary sequence at the 3′ end of the CUG repeat RNA. Recombinant human MBNL1 is expressed as a fusion with the PL fragment of beta-galactosidase. PL is a 55 amino acid fragment of beta-galactosidase. […] After incubation with test compound, unbound MBNL1-PL is washed away (FIG. 33B). Next, the complementing fragment of beta-galactosidase is added to determine the amount of MBNL1-PL that continues to interact with (CUG)109 RNA and thereby is retained on the microtiter plate. The binding of complementing fragment of beta-galactosidase to PL reconstitutes its enzymatic activity. This activity is then determined by adding substrate to provide a fluorescence or chemiluminescence signal from active beta-galactosidase. […]
(CUG)109 transcripts are tethered to the surface of a streptavidin-coated microtiter plate using a capture oligonucleotide that is biotinylated. […] Recombinant human MBNL1 is expressed as a fusion with the PL fragment of beta-galactosidase. […] This activity is then determined by adding substrate to provide a fluorescence or chemiluminescence signal from active beta-galactosidase. […]

## CCCN(CCCN(C)C)c1cc(/C=C2/Sc3ccccc3N2C)c2ccccc2[n+]1-c1ccccc1 [SybrGreen]
  amount of MBNL1-PL retained on plate (beta-galactosidase activity): reduce the amount of MBNL1-PL retained on plate
